This passage reports TGI and GI50 results from PubChem BioAssay (NCI).

The structures appear in SMILES notation.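 Test compounds were applied to cells in 96-well plates for 48 hours at 5 doses. GI50: concentration for 50% inhibition of growth. The concentration for full growth arrest is given as TGI.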 A value given as a limit tells only on which side of the number the result lay.

What all share (assay): DTP human tumour cell line panel, 48 h
In experiment [1] the test system is OVCAR-5 ovarian.
The subject of experiment [2] is CCRF-CEM leukemia.
Experiment [3] relates to HOP-62 NSCLC.
The test system of experiment [4] is MOLT-4 leukemia.
Experiment [5] relates to M14 melanoma.
Experiment [6] deals with UACC-257 melanoma.
For experiment [7], the system named is SW-620 colon.
Experiment [8] concerns HOP-92 NSCLC.
The subject of experiment [9] is UO-31 renal.

A word on the TGI: it is the concentration at which net growth stops. The low end stands for greater sensitivity of the cells, the high end for lower sensitivity of the cells. In the case of `Cn1c2c(c3ccccc31)CCN(CCCCN1CCc3c(n(C)c4ccccc34)C1=O)C2`, the total growth inhibition concentration (TGI) in [1], in experiment [2], in [3], in [4], in [5] and in experiment [6] was greater than 100 µM in each case. The TGI in [7], in experiment [8] and in experiment [9] was greater than 100 µM throughout.

Turning to `Cc1cc2c(c(C#N)c1C)NC(=O)CCC2=O`, the TGI in experiment [2], in [3], in [4], in experiment [5], in experiment [6] and in experiment [7] was greater than 100 µM throughout. This molecule showed a TGI in experiment [9] of 91.4 µM.

Take `O=C(c1ccccc1)C(c1ccccc1)C1(O)C(=O)Nc2c(Cl)cc(Cl)cc21` (configuration not stated): the TGI in experiment [1] was found to be 33.2 µM; in experiment [2], 49.7 µM; in experiment [4], 61.9 µM; in experiment [5], 37.9 µM; in [6], 35 µM; in experiment [7] it was 34.3 µM. Besides, the values for the total growth inhibition concentration (TGI) in experiment [8] and in experiment [9] were 40 µM and 38.4 µM, respectively.

As for `CCOC(=O)C(=O)Nc1nc2c(s1)C(=O)c1ccccc1C2=O`, the TGI in [1] was 42.5 µM; in experiment [2] it was 69.8 µM; in experiment [3], 33.5 µM; in [4] it was 18.9 µM; in [5], 32.7 µM; in [6], 31.4 µM. Further, the TGI in [7] came out at 27.7 µM; in experiment [8], 25.3 µM; in [9] it was 28 µM.

For `COc1cc(OC)c([C@@H]2OC(=O)C3C2C(=O)O[C@H]3c2cc(OC)c(OC)cc2OC)cc1OC` (some centres not stated), the TGI is greater than 100 µM in [2]; greater than 100 µM in experiment [3]; greater than 100 µM in experiment [4]; greater than 100 µM in experiment [5]; greater than 100 µM in experiment [6]; greater than 10 µM in [7]. Besides, the TGI in experiment [8] was greater than 10 µM; in experiment [9], greater than 100 µM.

For `CCOC(=O)[C@@]1(C)C=C2O[C@@H]3OC4(CCCCC4)O[C@@H]3C2=C2C(O)=CC=C(O)[C@]21C(=O)OC`, the TGI in experiment [1], in experiment [2], in [3], in [4], in experiment [5] and in experiment [6] was greater than 68 µM throughout. The results for the TGI in experiment [7], in experiment [8] and in [9] were greater than 68 µM, 33.8 µM and greater than 68 µM, respectively.

The GI50 is the concentration at which growth is held to half of that of the control. As to `CNC(P(=O)([O-])[O-])P(=O)([O-])[O-].N.N.[Pt+2]`, the GI50 in experiment [1], in experiment [5], in experiment [7] and in [9] was greater than 100 µM in each case. Moreover, the TGI in [1], in [5], in experiment [7] and in [9] was greater than 100 µM in each case.

Regarding `CCc1cccc(C(C)C)c1NC(=O)C(=O)C(Cc1nc2ccccc2[nH]c1=O)C(=O)OC` (configuration not stated), the TGI in experiment [1], in experiment [2], in [3], in [4], in experiment [5] and in [6] was greater than 100 µM each time. The TGI in [8] and in experiment [9] was greater than 100 µM in each case.

`CC1=C(C)C(=O)c2c(cc3ccc4ccccc4n23)C1=O`: the TGI in [1], in experiment [2], in experiment [4], in experiment [5], in experiment [7] and in experiment [9] was greater than 100 µM throughout.

As to `Cc1ccc(OCC(=O)N2N=C(c3ccccc3)CC2(O)c2ccccc2)cc1` (configuration not stated), the TGI in experiment [1] was 32.7 µM; in experiment [3], 46 µM; in experiment [4], greater than 100 µM; in [5], 90 µM; in [6], greater than 100 µM; in [7], greater than 100 µM. The TGI in [8] and in experiment [9] was greater than 100 µM each time.

As to `COC(=O)C1CC2(CC3=C1CCCC3)OCCO2` (configuration not stated), the TGI in [2], in experiment [3], in experiment [5], in experiment [6], in [7] and in experiment [8] was greater than 100 µM each time. In experiment [9], this molecule gave a TGI greater than 100 µM.

Regarding `Cc1cc(-c2ncc(CC(=O)Nc3ccc(-c4cnccn4)cn3)cc2C)ccn1`, the GI50 is 26.3 µM in experiment [1]; 35.8 µM in experiment [2]; 33.5 µM in experiment [3]; 23.9 µM in [4]; 16.6 µM in experiment [6]; 98.7 µM in experiment [7]. Further, the GI50 in experiment [8] is 12 µM; in experiment [9], 12.7 µM. In addition, the TGI in [1], in experiment [2], in experiment [3], in experiment [4], in experiment [6] and in [7] was greater than 100 µM throughout. Besides, the TGI is 81.8 µM in [8] and greater than 100 µM in [9].

Regarding `Nc1ccn(CCOC(=O)c2ccccc2)c(=O)n1`, the TGI in experiment [1], in experiment [2], in experiment [3], in experiment [5], in [6] and in [7] was greater than 100 µM each time. The TGI in experiment [8] and in experiment [9] was greater than 100 µM in each case.

`O=C(CNc1nncs1)NO`: the TGI in [1], in experiment [3], in experiment [4], in experiment [5], in [6] and in experiment [7] was greater than 100 µM throughout. The TGI in [8] and in [9] was greater than 100 µM each time.

For the molecule `Nn1c(-c2ccccc2)nc2ccc(Br)cc2c1=O`, the TGI in experiment [1] is greater than 100 µM; in experiment [2] it was 76.4 µM; in experiment [4], 50.5 µM; in experiment [5] it was greater than 100 µM; in experiment [6], greater than 100 µM; in experiment [7], greater than 100 µM. For the same molecule, the TGI in [8] is 98 µM; in experiment [9], greater than 100 µM.
